Laboratory results published in US7563895B2, “Quinoxaline compounds” (Janssen Pharmaceutica, N.V., priority 2003, dated 2009).

The molecules below were run against T1, CCK2 receptor (Homo sapiens, UniProt P32239) (assay: CCK2 receptor radioligand binding assay ([125I]-BH-CCK-8S, HEKZFP cell membranes)). Details: competition with [125I]-BH-CCK-8S, membranes of induced HEKZFP cells, 60 min at 21±3° C., Cheng-Prusoff.
T1 construct: Membranes were prepared from the HEKZFP cells after induction; endogenous in cells; host or cells: HEKZFP cells (T-REx-293 with tet-inducible ZFP-VP16 specific for the CCK2R gene), doxycycline-induced; membrane preparation
T1 sequence (P32239 1-447): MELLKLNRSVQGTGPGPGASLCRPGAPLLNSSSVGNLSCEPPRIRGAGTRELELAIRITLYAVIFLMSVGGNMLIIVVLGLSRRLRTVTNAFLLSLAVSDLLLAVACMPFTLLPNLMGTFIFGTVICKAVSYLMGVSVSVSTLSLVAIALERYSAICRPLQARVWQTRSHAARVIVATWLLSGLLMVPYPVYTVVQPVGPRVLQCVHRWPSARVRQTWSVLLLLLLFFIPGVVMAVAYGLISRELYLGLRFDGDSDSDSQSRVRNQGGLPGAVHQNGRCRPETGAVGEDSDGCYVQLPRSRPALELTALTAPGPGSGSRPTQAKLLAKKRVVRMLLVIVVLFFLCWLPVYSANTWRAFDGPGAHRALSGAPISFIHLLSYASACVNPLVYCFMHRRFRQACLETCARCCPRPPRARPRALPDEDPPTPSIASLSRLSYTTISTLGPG
Procedure: Zinc Finger Proteins (ZFP) specific for the CCK2R gene were identified by Sangamo Biosciences. The ZFP domain was fused with the herpes simplex virus VP16 activation domain, and the fusion protein was subsequently cloned into the pcDNA3 mammalian expression vector (Invitrogen, San Diego, Calif.). […] After 2 weeks of selection in culture medium containing […] Zeocin (Invitrogen), sixty drug-resistant stable clones were isolated and analyzed for ZFP expression as well as CCK2R induction upon addition of doxycycline to the culture medium.
HEKZFP cells were grown in DMEM supplemented with L-glutamine (2 mM), penicillin (50 units/mL) and streptomycin (50 μg/mL) and 10% FBS (v/v).
Membranes were prepared from the HEKZFP cells after induction. […] The thawed pellets were homogenized using a Polytron PT-10 (7×1 s). The homogenates were centrifuged for 5 min at 1500 rpm (600×g), and the resulting pellets were discarded. The supernatants were re-centrifuged in order to collect the receptor-membrane pellets (25 min 15,000 rpm; 39,800×g), which were re-suspended in buffer A.
The assay preparation was incubated for 1 h at 21±3° C., and then the assay was terminated by rapid filtration of the preparation under reduced pressure. The loaded filters were washed three times using undiluted PBS (100 μL), and then 100 μL of scintillation fluid was added to the filter plate. Bound radioactivity was determined using a Topcount (Packard BioScience, Meriden, Conn.) with a count time of 1 min. […] To validate the radioligand concentration and incubation time for the assay, saturation and kinetic binding studies were also conducted (see M. F. Morton, The Pharmacological Characterization of Cholecystokinin Receptors in the Human Gastrointestinal Tract. PhD Thesis, University of London, 2000). […] The assay was then terminated according to the procedure outlined above.
The pKi values were determined using the equation of Y.-C.
To circumvent problems associated with computer-assisted data analysis of compounds with low affinity, the data obtained in the current study were weighed according to a method described by Morton. In brief, 100% and 0% specific binding were defined independently using total binding and binding obtained in the presence of a high concentration of the reference antagonist, 2-NAP.

Row | SMILES | Ki | pKi
1 | CN(Cc1ccc(F)cc1)C(=O)c1ccc(I)cc1NS(=O)(=O)c1cccc2nccnc12 [Example 35, N-(4-Fluorobenzyl)-4-iodo-N-methyl-2-(quinoxaline-5-sulfonylamino)-benzamide] | 15.8 nM | –
2 | C[C@H]1COCCN1C(=O)c1ccc(Br)cc1NS(=O)(=O)c1cccc2nccnc12 [Example 28, (S)-Quinoxaline-5-sulfonic acid [5-bromo-2-(3-methylmorpholine-4-carbonyl)-phenyl]-amide] | 398 nM | –
3 | C[C@@H]1COCCN1C(=O)c1ccc(Br)cc1NS(=O)(=O)c1cccc2nccnc12 [Example 12, (R)-Quinoxaline-5-sulfonic acid [5-bromo-2-(3-methylmorpholine-4-carbonyl)-phenyl]-amide] | 79.4 nM | –
4 | O=C(c1ccc(I)cc1NS(=O)(=O)c1cccc2nccnc12)N1CCCCC1 [Example 4, Quinoxaline-5-sulfonic acid [5-iodo-2-(piperidine-1-carbonyl)-phenyl]-amide] | 25.1 nM | –
5 | O=C(N[C@H](CF)c1ccc(F)cc1)c1ccc(Br)cc1NS(=O)(=O)c1cccc2nccnc12 [Example 71, (S)-4-Bromo-N-[2-fluoro-1-(4-fluoro-phenyl)-ethyl]-2-(quinoxaline-5-sulfonylamino)-benzamide] | 79.4 nM | –
6 | O=C(NC(CF)c1ccc(F)cc1F)c1ccc(I)cc1NS(=O)(=O)c1cccc2nccnc12 (stereo not shown) [Example 75, N-[1-(2,4-Difluoro-phenyl)-2-fluoro-ethyl]-4-iodo-2-(quinoxaline-5-sulfonylamino)-benzamide] | 63.1 nM | –
7 | C[C@@H]1COC[C@H](C)N1C(=O)c1ccc(I)cc1NS(=O)(=O)c1cccc2nccnc12 [Example 25, (R,S)-Quinoxaline-5-sulfonic acid [2-(3,5-dimethylmorpholine-4-carbonyl)-5-iodophenyl]-amide] | 316 nM | –
8 | O=C(c1ccc(I)cc1NS(=O)(=O)c1cccc2nccnc12)N1CCC(O)CC1 [Example 26, Quinoxaline-5-sulfonic acid [2-(4-hydroxy-piperidine-1-carbonyl)-5-iodo-phenyl]-amide] | 316 nM | –
9 | CC(NC(=O)c1ccc(Br)cc1NS(=O)(=O)c1cccc2nccnc12)c1ccc(F)cc1 (stereo not shown) [Example 53, 4-Bromo-N-[1-(4-fluoro-phenyl)-ethyl]-2-(quinoxaline-5-sulfonylamino)-benzamide] | 25.1 nM | –
10 | CN(Cc1ccc(Cl)cc1)C(=O)c1ccc(I)cc1NS(=O)(=O)c1cccc2nccnc12 [Example 48, N-(4-Chloro-benzyl)-4-iodo-N-methyl-2-(quinoxaline-5-sulfonylamino)-benzamide] | 20 nM | –
11 | C[C@H](NC(=O)c1ccc(I)cc1NS(=O)(=O)c1cccc2nccnc12)c1ccc(Cl)cc1Cl [Example 66, (S)-N-[1-(2,4-Dichloro-phenyl)-ethyl]-4-iodo-2-(quinoxaline-5-sulfonylamino)-benzamide] | 50.1 nM | –
12 | O=C(c1ccc(Br)cc1NS(=O)(=O)c1cccc2nccnc12)N1CCOc2cc(F)ccc2C1 [Example 39, Quinoxaline-5-sulfonic acid [5-bromo-2-(8-fluoro-2,3-dihydro-5H-benzo[f][1,4]oxazepine-4-carbonyl)phenyl]-amide] | 79.4 nM | –
13 | C[C@@H](NC(=O)c1ccc(I)cc1NS(=O)(=O)c1cccc2nccnc12)c1ccc(F)cc1F [Example 15, (R)—N-[1-(2,4-Difluorophenyl)-ethyl]-4-iodo-2-(quinoxaline-5-sulfonylamino)-benzamide] | 12.6 nM | –
14 | O=C(c1ccc(I)cc1NS(=O)(=O)c1cccc2nccnc12)N1CCOc2cc(F)cc(F)c2C1 [Example 94, Quinoxaline-5-sulfonic acid [2-(6,8-difluoro-2,3-dihydro-5H-benzo[f][1,4]oxazepine-4-carbonyl)-5-iodo-phenyl]-amide] | 398 nM | –
15 | O=C(N[C@H](CF)c1ccc(F)cc1F)c1ccc(Cl)cc1NS(=O)(=O)c1cccc2nccnc12 [Example 78, (S)-4-Chloro-N-[1-(2,4-difluoro-phenyl)-2-fluoro-ethyl]-2-(quinoxaline-5-sulfonylamino)-benzamide] | 39.8 nM | –
16 | C[C@@H](NC(=O)c1ccc(Cl)cc1NS(=O)(=O)c1cccc2nccnc12)c1ccc(F)cc1 [Example 7, (R)-4-Chloro-N-[1-(4-fluorophenyl)-ethyl]-2-(quinoxaline-5-sulfonylamino)-benzamide] | 31.6 nM | –
17 | C[C@H](NC(=O)c1ccc(Cl)cc1NS(=O)(=O)c1cccc2nccnc12)c1ccc(Cl)cc1Cl [Example 9, (S)-4-Chloro-N-[1-(2,4-dichlorophenyl)ethyl]-2-(quinoxaline-5-sulfonylamino)-benzamide] | 39.8 nM | –
18 | C[C@@H](NC(=O)c1ccc(Br)cc1NS(=O)(=O)c1cccc2nccnc12)c1ccc(F)cc1 [Example 8, (R)-4-Bromo-N-[1-(4-fluorophenyl)-ethyl]-2-(quinoxaline-5-sulfonylamino)-benzamide] | 39.8 nM | –
19 | O=C(c1ccc(Br)cc1NS(=O)(=O)c1cccc2nccnc12)N1CCOCC1 [Example 11, (R)-Quinoxaline-5-sulfonic acid [5-bromo-2-(morpholine-4-carbonyl)-phenyl]-amide] | – | 7.2
20 | CN(Cc1ccccc1)C(=O)c1ccc(I)cc1NS(=O)(=O)c1cccc2nccnc12 [Example 42, N-Benzyl-4-iodo-N-methyl-2-(quinoxaline-5-sulfonylamino)-benzamide] | 25.1 nM | –
21 | O=C(c1cc(Cl)c(Cl)cc1NS(=O)(=O)c1cccc2nccnc12)N1CCOCC1 [Example 20, Quinoxaline-5-sulfonic acid [4,5-dichloro-2-(morpholine-4-carbonyl)-phenyl]-amide] | 79.4 nM | –
22 | CN(Cc1ccc(F)cc1)C(=O)c1ccc(Br)cc1NS(=O)(=O)c1cccc2nccnc12 [Example 45, 4-Bromo-N-(4-fluoro-benzyl)-N-methyl-2-(quinoxaline-5-sulfonylamino)-benzamide] | 31.6 nM | –
23 | O=C(c1ccc(Br)cc1NS(=O)(=O)c1cccc2nccnc12)N1CCCCCC1 [Example 21, Quinoxaline-5-sulfonic acid [2-(azepane-1-carbonyl)-5-bromophenyl]-amide] | 126 nM | –
24 | O=C(N[C@H](CF)c1ccc(F)cc1)c1ccc(Cl)cc1NS(=O)(=O)c1cccc2nccnc12 [Example 72, (S)-4-Chloro-N-[2-fluoro-1-(4-fluoro-phenyl)-ethyl]-2-(quinoxaline-5-sulfonylamino)-benzamide] | 100 nM | –
25 | O=C(NCc1ccc(F)cc1Cl)c1ccc(Br)cc1NS(=O)(=O)c1cccc2nccnc12 [Example 16, 4-Bromo-N-(2-chloro-4-fluoro-benzyl)-2-(quinoxaline-5-sulfonylamino)-benzamide] | 39.8 nM | –
26 | C[C@@H]1COCCN1C(=O)c1ccc(I)cc1NS(=O)(=O)c1cccc2nccnc12 [Example 19, (R)-Quinoxaline-5-sulfonic acid [5-iodo-2-(3-methylmorpholine-4-carbonyl)-phenyl]-amide] | 79.4 nM | –
27 | C[C@@H](NC(=O)c1ccc(F)cc1NS(=O)(=O)c1cccc2nccnc12)c1ccc(Cl)cc1Cl [Example 37, (R)—N-[1-(2,4-Dichlorophenyl)-ethyl]-4-fluoro-2-(quinoxaline-5-sulfonylamino)-benzamide] | 200 nM | –
28 | C[C@H](c1ccccc1)N(C)C(=O)c1ccc(Cl)cc1NS(=O)(=O)c1cccc2nccnc12 [Example 62, (R)-4-Chloro-N-methyl-N-(1-phenyl-ethyl)-2-(quinoxaline-5-sulfonylamino)-benzamide] | 15.8 nM | –
